ChEMBL document CHEMBL1131216, “Anhydrolide macrolides. 2. Synthesis and antibacterial activity of 2,3-anhydro-6-O-methyl 11,12-carbazate erythromycin A analogues” (1998)
≈ marks a conversion by molar mass, not a printed value.

Legend:
Assay type in all cases: functional
Streptococcus pyogenes [1] = test: In vitro antibacterial activity of EES61 strain of Gram positive bacteria Streptococcus pyogenes
Staphylococcus aureus [2] = test: In vitro antibacterial activity of A-5278 strain of Gram positive bacteria Staphylococcus aureus
Streptococcus pyogenes [3] = test: In vitro antibacterial activity of 930 strain of Gram positive bacteria Streptococcus pyogenes
Staphylococcus aureus [4] = test: In vitro antibacterial activity of 6538P strain of Gram positive bacteria Staphylococcus aureus
Streptococcus pyogenes [5] = test: In vitro antibacterial activity of PIU2584 strain of Gram positive bacteria Streptococcus pyogenes
Streptococcus pneumoniae [6] = test: In vitro antibacterial activity of ATCC 6303 strain of Gram positive bacteria Streptococcus pneumoniae
Haemophilus influenzae = test: In vitro antibacterial activity of DILL strain of Gram negative bacteria Haemophilus influenzae
Staphylococcus aureus [7] = test: In vitro antibacterial activity of A5177 strain of Gram positive bacteria Staphylococcus aureus
Streptococcus pneumoniae [8] = test: In vitro antibacterial activity of 5979 strain of Gram positive bacteria Streptococcus pneumoniae
Streptococcus pneumoniae [9] = test: In vitro antibacterial activity of 5649 strain of Gram positive bacteria Streptococcus pneumoniae

| SMILES | MIC (Streptococcus pyogenes [1]) [µg/mL] | MIC (Staphylococcus aureus [2]) [µg/mL] | MIC (Streptococcus pyogenes [3]) [µg/mL] | MIC (Staphylococcus aureus [4]) [µg/mL] | MIC (Streptococcus pyogenes [5]) [µg/mL] | MIC (Streptococcus pneumoniae [6]) [µg/mL] | MIC (Haemophilus influenzae) [µg/mL] | MIC (Staphylococcus aureus [7]) [µg/mL] | MIC (Streptococcus pneumoniae [8]) [µg/mL] | MIC (Streptococcus pneumoniae [9]) [µg/mL] |
| --- | --- | --- | --- | --- | --- | --- | --- | --- | --- | --- |
| CC[C@H]1OC(=O)/C(C)=C/[C@H](C)[C@@H](O[C@@H]2O[C@H](C)C[C@H](N(C)C)[C@H]2O)[C@@](C)(OC)C[C@@H](C)C(=O)[C@H](C)[C@H]2N(NC/C=C/c3ccc([N+](=O)[O-])o3)C(=O)O[C@]12C | 0.004 (≈ 0.00524 µM) | > 100 | 64 (≈ 83.9 µM) | 0.02 (≈ 0.0262 µM) | 0.25 (≈ 0.328 µM) | 0.03 (≈ 0.0393 µM) | 2 (≈ 2.62 µM) | 0.01 (≈ 0.0131 µM) | > 128 | 0.5 (≈ 0.655 µM) |
| CC[C@H]1OC(=O)/C(C)=C/[C@H](C)[C@@H](O[C@@H]2O[C@H](C)C[C@H](N(C)C)[C@H]2O)[C@@](C)(OC)C[C@@H](C)C(=O)[C@H](C)[C@H]2N(NCCCn3nnc4ccccc43)C(=O)O[C@]12C | 0.03 (≈ 0.0389 µM) | > 100 | > 128 | 0.2 (≈ 0.259 µM) | 1 (≈ 1.3 µM) | 0.03 (≈ 0.0389 µM) | 4 (≈ 5.19 µM) | 0.1 (≈ 0.13 µM) | > 128 | 1 (≈ 1.3 µM) |
| CC[C@H]1OC(=O)/C(C)=C/[C@H](C)[C@@H](O[C@@H]2O[C@H](C)C[C@H](N(C)C)[C@H]2O)[C@@](C)(OC)C[C@@H](C)C(=O)[C@H](C)[C@H]2N(NCCCc3ccccc3O)C(=O)O[C@]12C | 0.03 (≈ 0.0402 µM) | > 100 | > 128 | 0.2 (≈ 0.268 µM) | 2 (≈ 2.68 µM) | 0.03 (≈ 0.0402 µM) | 16 (≈ 21.4 µM) | 0.2 (≈ 0.268 µM) | > 128 | 2 (≈ 2.68 µM) |
| CC[C@H]1OC(=O)/C(C)=C/[C@H](C)[C@@H](O[C@@H]2O[C@H](C)C[C@H](N(C)C)[C@H]2O)[C@@](C)(OC)C[C@@H](C)C(=O)[C@H](C)[C@H]2N(NCc3ccc(OC)cc3)C(=O)O[C@]12C | 0.03 (≈ 0.041 µM) | > 100 | > 64 | 0.2 (≈ 0.273 µM) | 1 (≈ 1.37 µM) | 0.125 (≈ 0.171 µM) | 8 (≈ 10.9 µM) | 0.2 (≈ 0.273 µM) | > 64 | 2 (≈ 2.73 µM) |
| CC[C@H]1OC(=O)/C(C)=C/[C@H](C)[C@@H](O[C@@H]2O[C@H](C)C[C@H](N(C)C)[C@H]2O)[C@@](C)(OC)C[C@@H](C)C(=O)[C@H](C)[C@H]2N(NCc3cc(O)ccc3O)C(=O)O[C@]12C | 0.25 (≈ 0.341 µM) | > 100 | 128 (≈ 174 µM) | 3.1 (≈ 4.22 µM) | 4 (≈ 5.45 µM) | 0.25 (≈ 0.341 µM) | 32 (≈ 43.6 µM) | 3.1 (≈ 4.22 µM) | 128 (≈ 174 µM) | 2 (≈ 2.73 µM) |
| CC[C@H]1OC(=O)/C(C)=C/[C@H](C)[C@@H](O[C@@H]2O[C@H](C)C[C@H](N(C)C)[C@H]2O)[C@@](C)(OC)C[C@@H](C)C(=O)[C@H](C)[C@H]2N(NC/C=C/c3ccccc3)C(=O)O[C@]12C | 0.06 (≈ 0.0824 µM) | 100 (≈ 137 µM) | 32 (≈ 44 µM) | 0.02 (≈ 0.0275 µM) | 0.5 (≈ 0.687 µM) | 0.03 (≈ 0.0412 µM) | 8 (≈ 11 µM) | 0.1 (≈ 0.137 µM) | 32 (≈ 44 µM) | 1 (≈ 1.37 µM) |
| CC[C@H]1OC(=O)/C(C)=C/[C@H](C)[C@@H](O[C@@H]2O[C@H](C)C[C@H](N(C)C)[C@H]2O)[C@@](C)(OC)C[C@@H](C)C(=O)[C@H](C)[C@H]2N(NCc3ccc(O)cc3)C(=O)O[C@]12C | 0.03 (≈ 0.0418 µM) | > 100 | > 128 | 0.2 (≈ 0.279 µM) | 1 (≈ 1.39 µM) | 0.03 (≈ 0.0418 µM) | 4 (≈ 5.57 µM) | 0.2 (≈ 0.279 µM) | > 128 | 1 (≈ 1.39 µM) |
| CC[C@H]1OC(=O)[C@H](C)[C@@H](O[C@H]2C[C@@](C)(OC)[C@@H](O)[C@H](C)O2)[C@H](C)[C@@H](O[C@@H]2O[C@H](C)C[C@H](N(C)C)[C@H]2O)[C@](C)(O)C[C@@H](C)C(=O)[C@H](C)[C@@H](O)[C@]1(C)O [ERYTHROMYCIN] | 0.03 (≈ 0.0409 µM) | > 100 | > 128 | 0.2 (≈ 0.273 µM) | 32 (≈ 43.6 µM) | 0.06 (≈ 0.0818 µM) | 4 (≈ 5.45 µM) | 3.1 (≈ 4.22 µM) | > 128 | 16 (≈ 21.8 µM) |
